# Reference: patent publication US20110045102A1, “Cancer chemotherapy compositions comprising PI3K pathway modulators and triptolide” (priority 2005, published 2011)
# Assays:
# [1] = system: OCC1-SEAP cells; test: OCC1-SEAP cell response to carboplatin in vitro (DNA per well, SEAP in medium); type: cell-based, human
# Protocol: OCC1-SEAP-12 cells were grown in Ham's F-12 medium (Gibco) plus 10% calf serum then collected into Hank's balanced salt solution and counted for injection into nude mice. For in vitro assays OCC1-SEAP-12 cells were plated at sequential twofold dilutions and allowed to adhere to culture wells and incubated for 24 hours. Alternatively, OCC1-SEAP-12 cells were grown to 80% confluence in Ham's F-12 medium plus 10% calf serum. Cells were starved for 48 hours in DMEM plus 0.1% BSA and 0.1% calf serum. Experimental treatments were applied for 2 days in DMEM plus 0.1% BSA and 0.1% calf serum. At the end of the treatment period a sample of culture medium was taken for SEAP level determination. DNA assays were performed by discarding the remaining culture medium from over the cells, adding buffer solution, sonicating the cells in each well, and measuring the fluorescence of cell solution into which SYBR Green I fluorescent dye (Molecular Probes, Eugene, Oreg.) had been incorporated as previously described (Parrott and Skinner 1999).
# Blood plasma and cell culture medium samples were assayed for SEAP activity using the Great EscAPe SEAP fluorescence detection kit (Clontech Laboratories, Palo Alto, Calif.). SEAP is secreted at a constant rate by transfected tumor cells and distributed throughout the body or into the culture medium. SEAP is heat stable, so any endogenous alkaline phosphatase activity in blood plasma is destroyed by heat treatment of the samples (65° C. for 30 minutes) during the assay. The SEAP enzyme in each sample acts on the substrate 4-methylumbelliferyl phosphate during a 1 hour incubation at room temperature to produce a fluorescent product with excitation and emission peaks at 360 and 449 nm, respectively. A fluorimeter is then used to measure SEAP activity. The intra-assay and inter-assay coefficients of variation were 2.5% and 18.8%, respectively. Blood plasma samples were diluted 1:100 prior to the assay to bring values within the linear range of the standard curve.
# [2] = system: OCC1-SEAP ovarian cancer cells; test: Cell survival by DNA content of culture wells (Example II); type: cell-based, human; details: 48 hours; triptolide 100 ng/ml, carboplatin 50 (FIG. 8 legend: mg/ml)
# Protocol: Cell survival was assessed as the number of cells remaining in culture, following exposure to treatments. The DNA content of individual culture wells was used as an indication of cell number. Cells plated in 24 well culture plates were allowed to approach confluence (80%) in Ham's F-12 medium plus 10% BCS. Cultures were then incubated in DMEM, plus 0.1% BSA and 0.1% BCS, in the presence of vehicle control, carboplatin (0-100 μg/ml), Triptolide (100 ng/ml) or a combination of these for 24 to 96 hrs. Media aliquots were taken when appropriate for SEAP analysis. The DNA was measured fluorometrically, as described above, in Example I. Briefly, the fluorescence of an aliquot of sonicated cell suspension, into which SYBR Green I fluorescent dye (Molecular Probes, Eugene, Oreg.), had been incorporated was measured.
# [3] = system: OCC1-SEAP tumor; test: Nude mouse tumor model, intraperitoneal OCC1-SEAP cells, plasma SEAP (Example II); type: in vivo; details: carboplatin 60 mg/kg every other day for 5 days
# From the text: Athymic nude mice (NCR Nu/Nu) were either purchased from Taconic (Germantown, N.Y.) or bred in-house at Washington State University, Pullman, Wash. The OCC1-SEAP cells were collected in Hank's balanced salt solution and counted prior to injection. Treatments were initiated 7 to 10 days following an intraperitoneal inoculation of mice with 1×10^7 OCC1-SEAP cells, as described above, in Example I.
# Stock solutions of carboplatin (paraplatin; Bristol-Myers Squibb, Princeton, N.J.) and TPL (Calbiochem, CA), were prepared in sterile filtered PBS and DMSO, respectively. Animals received intraperitoneal injections of either vehicle controlled (PBS containing 4% DMSO), or carboplatin (60 mg/kg), alone, or in combination with TPL (0-1.0 mg/kg), every other day for 5 days. Alternatively, TPL (0.15 mg/kg) was injected every day for 10 days. For these experiments, carboplatin was administered under the same schedule of every other day for 5 days. Some mice were also treated with 40 mg/kg of LY294002 every other day for 5 days, with an intraperitoneal injection in the presence of TPL and carboplatin. Blood samples were collected into capillary tubes from saphenous vein lancings at regular intervals during and following treatments. The capillary tubes were centrifuged and the plasma samples were frozen at −20° C., until the time of SEAP assay. The Washington State University Animal Care and Use Committee approved all procedures.
# Blood plasma and cell culture medium samples were assayed for SEAP activity using the Great EscAPe SEAP fluorescence detection kit (Clontech Laboratories, Palo Alto, Calif.), as described above in Example I. Blood plasma samples were diluted 1:100, prior to the assay to bring values within the linear range of the standard curve. The intraassay and interassay coefficients of variation were 2.5% and 18.8%, respectively. In the case of the experiments in which mice were treated with a combination of TPL, LY294002 and carboplatin, there was some variation in the extent of tumor growth in the control mice. In order to better compare response to treatment across experiments, the SEAP assay data between experiments were normalized by dividing each data point by the overall mean of all SEAP measurements from that experiment and up, through day 18. The normalized data then reflect the relative tumor burden of each mouse, compared to others in the experimental group, and can be combined across experiments.
# [4] = system: OCC1-SEAP-12 cells; test: Growth assay, [3H] thymidine incorporation (Example III); type: cell-based, human; details: 18h treatment
# Protocol: Cell proliferation was analyzed by determining the amount of [^3H] thymidine incorporation Into newly synthesized DNA. The OCC1-SEAP-12 cells were plated in 24 well plates in Ham's F-12 medium plus 10% BCS and allowed to reach 50 to 70% confluence. Following a 48 hr serum starvation, the culture medium was changed to Dulbecco's Modified Eagle Medium (DMEM) plus 0.1% BSA and 0.1% BCS containing either vehicle control or carboplatin (0-100 μg/ml) alone, or in combination with LY294002 (0-20 μM). Treatments were removed after 18h and cells were incubated for 4 hr in medium containing 5 μCi/ml of [^3H] thymidine. Medium was removed and cells were disrupted by sonication in phosphate buffered saline (PBS). An aliquot of the sonicated solution of PBS was loaded onto a DEAE filtration plate (Millipore, Bedford, Mass.), and individual filters with bound DNA were collected for scintillation counting. Data was normalized to total DNA per well and was determined by a SYBR green fluorescent assay (Nilsson E E, Westfall S D, McDonald C, Ligon T, Sadler-Riggleman I, Skinner M K. An in vivo mouse reporter gene (human secreted alkaline phosphatase) model to monitor ovarian tumor growth and response to therapeutics. Cancer Chemother Pharmacol 2002; 49(2):93-100).
smiles,measurement,setting,value
N.N.O=C([O-])C1(C(=O)[O-])CCC1.[Pt+2] [carboplatin],normalized SEAP production (SEAP per amount of DNA per well),[1]; 60 micro g/ml carboplatin for 48 hours vs control,did not change
same,SEAP levels in culture medium,"[1]; 60 micro g/ml carboplatin for 48 hours, control cells 11.1",3.9 ng per 25 micro liter
same,DNA levels,"[1]; 60 micro g/ml carboplatin for 48 hours, control cells 58 micro g/ml",35 micro g/ml
same,decrease in cell survival (μg DNA/ml) compared to control cultures,[2],30%
same,tumor burden vs vehicle control (FIG. 11),"[3]; high dose, short duration: TPL 0.5 mg/kg",no significant difference
same,tumor burden as measured by SEAP levels vs vehicle control (FIG. 12),"[3]; low dose, long duration: TPL 0.15 mg/kg every day for 10 days",no significant difference
same,block of basal DNA synthesis,[4]; 20 μg/ml carboplatin,51%
same,block of basal DNA synthesis,[4]; 50 μg/ml carboplatin,59.5%
